According to article PMC2653224 (Journal of molecular biology, 2008):

Target: cytochrome c (Fe^2+ cyt c) (Equus caballus, UniProt P00004)
Assay: equilibrium heme Soret absorbance titration with CO at […] °C
Format: binding

Sequence of cytochrome c (Fe^2+ cyt c) (P00004 2-105): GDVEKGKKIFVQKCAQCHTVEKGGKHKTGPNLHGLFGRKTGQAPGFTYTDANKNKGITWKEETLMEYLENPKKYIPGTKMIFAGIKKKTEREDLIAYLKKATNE

[C-]#[O+] [CO]
Kd: 14 ± 8 nM
